What was measured:
Assay in all cases: microbe, parasite or virus in culture
Type in all cases: cell-based
[1] = test system: HCV 1a RLuc cells (dicistronic genotype 1a H77 replicon, RLuc reporter); conditions: Hepatitis C virus, genotype 1a H77 replicon, RLuc reporter; read-out: 1a
In short: (§1)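 Replicon cells stably carrying the listed RLuc-encoding dicistronic replicons were seeded and treated with DMSO serial dilutions of compound (10 mM stocks) diluted into culture medium. After 72 h, cells were lysed and Renilla luciferase activity measured. EC50 was derived by non-linear regression.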

[2] = test system: HCV 1b RLuc cells (dicistronic genotype 1b Con1 replicon, RLuc reporter); conditions: Hepatitis C virus, read-out: 1b (nM)
In short: as §1

[3] = test system: HCV 2a JFH-1 Rluc cells (dicistronic genotype 2a JFH-1 replicon, RLuc reporter); conditions: Hepatitis C virus, genotype 2a JFH-1 replicon, RLuc reporter; read-out: 2a JFH
In short: as §1

[4] = test system: HCV 3a RLuc cells (NS5A chimeric genotype 1b Con1 replicon with consensus genotype 3a NS5A gene); conditions: Hepatitis C virus, read-out: 3a, genotype 3a NS5A chimeric 1b Con1 replicon
In short: as §1

[5] = test system: HCV 4a Rluc cells (NS5A chimeric genotype 1b Con1 replicon with genotype 4a NS5A gene); conditions: Hepatitis C virus, read-out: 4a
In short: as §1

| SMILES | EC50 [1] | EC50 [2] | EC50 [3] | EC50 [4] | EC50 [5] |
| --- | --- | --- | --- | --- | --- |
| COC(=O)N[C@H](C(=O)N1CCC[C@H]1c1ncc(-c2cccc(-c3ccc4cc(-c5cnc([C@@H]6CCCN6C(=O)[C@@H](NC(=O)OC)C(C)C)[nH]5)ccc4c3)c2)[nH]1)C(C)C [Example 243] | > 44 nM | 4.59 nM | > 44 nM | > 5 nM | 0.001 to 0.99 nM |
| COC(=O)N[C@H](C(=O)N1CCC[C@H]1c1nc2c([nH]1)-c1ccc(-c3ccc4cc(-c5cnc([C@@H]6CCCN6C(=O)[C@H](NC(=O)C(C)(C)O)c6ccccc6)[nH]5)ccc4c3)cc1CC2)C(C)C [Example 244] | 0.001 to 0.999 nM | 0.014 nM | 0.001 to 0.999 nM | 0.001 to 0.99 nM | 0.001 to 0.99 nM |
| COC(=O)N[C@H](C(=O)N1CCC[C@H]1c1nc2c([nH]1)-c1ccc(-c3ccc4cc(-c5cnc([C@@H]6CCCN6C(=O)[C@H](NC(=O)CN6CCOCC6)c6ccccc6)[nH]5)ccc4c3)cc1CC2)C(C)C [Example 245] | 0.001 to 0.999 nM | 0.017 nM | 0.001 to 0.999 nM | 0.001 to 0.99 nM | 0.001 to 0.99 nM |
| COC(=O)N[C@H](C(=O)N1CCC[C@H]1c1nc2c([nH]1)-c1ccc(-c3ccc4cc(-c5cnc([C@@H]6CCCN6C(=O)[C@H](NC(=O)C6CCOCC6)c6ccccc6)[nH]5)ccc4c3)cc1CC2)C(C)C [Example 246] | 0.001 to 0.999 nM | 0.045 nM | 0.001 to 0.999 nM | 0.001 to 0.99 nM | 0.001 to 0.99 nM |
| COC(=O)N[C@H](C(=O)N1CCC[C@H]1c1ncc(-c2ccc3cc(-c4ccc(-c5cnc([C@@H]6CCCN6C(=O)OC(C)(C)C)[nH]5)cc4)ccc3c2)[nH]1)C(C)C [Example 247] | 1 to 44 nM | 0.758 nM | > 44 nM | > 5 nM | 0.001 to 0.99 nM |
| COC(=O)NC(C(=O)N[C@H](c1ncc(-c2ccc3c(c2)C(F)(F)c2cc(-c4ccc5nc([C@@H]6CCCN6C(=O)[C@@H](NC(=O)OC)[C@@H](C)OC)[nH]c5c4)ccc2-3)[nH]1)C(C)C)C(C)C (stereo partly shown) [Example 248] | 1 to 44 nM | 0.024 nM | 1 to 44 nM | > 5 nM | 0.001 to 0.99 nM |
| COC(=O)N[C@H](C(=O)N1CCC[C@H]1c1ncc(-c2ccc3c(c2)C(=C(C)C)c2cc(-c4cnc([C@@H]5CCCN5C(=O)[C@@H](NC(=O)OC)C(C)C)[nH]4)ccc2-3)[nH]1)C(C)C [Example 249] | 1 to 44 nM | 0.014 nM | 1 to 44 nM | > 5 nM | 0.001 to 0.99 nM |
| COC(=O)N[C@H](C(=O)N1CCC[C@H]1c1ncc(-c2ccc3c(c2)sc2cc(-c4cnc([C@@H]5CCCN5C(=O)[C@H](NC(=O)OC)c5ccccc5)[nH]4)ccc23)[nH]1)C(C)C [Example 250] | 0.001 to 0.999 nM | 0.004 nM | 0.001 to 0.999 nM | 0.001 to 0.99 nM | 0.001 to 0.99 nM |
| COC(=O)N[C@H](C(=O)N1CCC[C@H]1c1nc2ccc(-c3ccc4c(c3)sc3cc(-c5cnc([C@@H]6CCCN6C(=O)[C@H](NC(=O)OC)c6ccccc6)[nH]5)ccc34)cc2[nH]1)[C@@H](C)OC [Example 251] | 0.001 to 0.999 nM | 0.01 nM | 0.001 to 0.999 nM | 0.001 to 0.99 nM | 0.001 to 0.99 nM |
| COC(=O)N[C@H](C(=O)N1CCC[C@H]1c1ncc(-c2ccc(-c3cc4ccc(-c5c[nH]c([C@@H]6CCCN6C(=O)[C@H](NC(=O)OC)c6ccccc6)n5)cc4s3)cc2)[nH]1)C(C)C [Example 252] | 0.001 to 0.999 nM | 0.004 nM | 0.001 to 0.999 nM | 0.001 to 0.99 nM | 0.001 to 0.99 nM |
| COC(=O)N[C@H](C(=O)N1CCC[C@H]1c1nc(-c2ccc3cc(-c4ccc(-c5cnc([C@@H]6CCCN6C(=O)[C@H](NC(=O)OC)c6ccccc6)[nH]5)cc4)sc3c2)c[nH]1)C(C)C [Example 253] | 0.001 to 0.999 nM | 0.005 nM | 0.001 to 0.999 nM | 0.001 to 0.99 nM | 0.001 to 0.99 nM |
| COC(=O)N[C@H](C(=O)N1CCC[C@H]1c1ncc(-c2ccc3cc(-c4ccc(-c5cnc([C@@H]6CC(O)CN6C(=O)[C@H](NC(=O)OC)c6ccccc6)[nH]5)cc4)ccc3c2)[nH]1)C(C)C (stereo partly shown) [Example 256] | 0.001 to 0.999 nM | 0.015 nM | 0.001 to 0.999 nM | 0.001 to 0.99 nM | 0.001 to 0.99 nM |
| COC(=O)N[C@H](C(=O)N1CCC[C@H]1c1nc(-c2ccc3cc(-c4ccc5c(ccc6nc([C@@H]7CCCN7C(=O)[C@H](NC(=O)OC)c7ccccc7)[nH]c65)c4)sc3c2)c[nH]1)[C@H](C)OC [Example 257] | 0.001 to 0.999 nM | 0.013 nM | 0.001 to 0.999 nM | 0.001 to 0.99 nM | 0.001 to 0.99 nM |
| COC(=O)N[C@H](C(=O)N1CCC[C@H]1c1ncc(-c2ccc3c(c2)C(F)(F)c2cc(-c4ccc5nc([C@@H]6CCCN6C(=O)[C@H](NC(=O)OC)c6ccccc6)[nH]c5c4)ccc2-3)[nH]1)C(C)C [Example 258] | 0.001 to 0.999 nM | 0.005 nM | 0.001 to 0.999 nM | 0.001 to 0.99 nM | 0.001 to 0.99 nM |
| COC(=O)N[C@H](C(=O)N1CCC[C@H]1c1ncc(-c2ccc3c(c2)C(F)(F)c2cc(-c4ccc5nc([C@@H]6CCCN6C(=O)[C@H](NC(=O)OC)c6ccccc6)[nH]c5c4)ccc2-3)[nH]1)C1CCOCC1 [Example 259] | 0.001 to 0.999 nM | 0.014 nM | 0.001 to 0.999 nM | 0.001 to 0.99 nM | 0.001 to 0.99 nM |
| COC(=O)N[C@H](C(=O)N1CCC[C@H]1c1ncc(-c2ccc3cc(-c4ccc(-c5cnc([C@@H]6CCCN6C(=O)[C@H](NC(=O)C6CCCO6)c6ccccc6)[nH]5)cc4)ccc3c2)[nH]1)C(C)C (stereo partly shown) [Example 261] | 0.001 to 0.999 nM | 0.011 nM | 0.001 to 0.999 nM | 0.001 to 0.99 nM | 0.001 to 0.99 nM |
| COC(=O)NC(C(=O)N1CC2(CC2)C[C@H]1c1ncc(-c2ccc(-c3ccc4cc(-c5cnc([C@@H]6CCCN6C(=O)[C@H](NC(=O)OC)c6ccccc6)[nH]5)ccc4c3)cc2)[nH]1)[C@@H](C)OC (stereo partly shown) [Example 262] | 0.001 to 0.999 nM | 0.008 nM | 0.001 to 0.999 nM | 0.001 to 0.99 nM | 0.001 to 0.99 nM |
| COC(=O)N[C@H](C(=O)N1CC(F)(F)C[C@H]1c1ncc(-c2ccc(-c3ccc4cc(-c5cnc([C@@H]6CCCN6C(=O)[C@H](NC(=O)OC)c6ccccc6)[nH]5)ccc4c3)cc2)[nH]1)[C@@H](C)OC [Example 263] | 0.001 to 0.999 nM | 0.006 nM | 0.001 to 0.999 nM | 0.001 to 0.99 nM | 0.001 to 0.99 nM |
| COC(=O)NC(C(=O)N1CCC[C@H]1c1ncc(-c2ccc3c(c2)C(F)(F)c2cc(-c4ccc5nc([C@@H]6CCCN6C(=O)[C@@H](NC(=O)OC)[C@@H](C)OC)[nH]c5c4)ccc2-3)[nH]1)C(C)C (stereo partly shown) [Example 264] | 0.001 to 0.999 nM | 0.006 nM | 1 to 44 nM | 1 to 4.99 nM | 0.001 to 0.99 nM |
| COC(=O)N[C@H](C(=O)N1CCC[C@H]1c1ncc(-c2ccc3cc(-c4ccc(-c5cnc([C@@H]6CCCN6C(=O)[C@@H](NC(=O)OC)[C@@H](C)OC(C)(C)C)[nH]5)cc4)ccc3c2)[nH]1)C(C)C [Example 265] | 1 to 44 nM | 0.042 nM | 1 to 44 nM | 1 to 4.99 nM | 0.001 to 0.99 nM |
| COC(=O)N[C@H](C(=O)N1CCC[C@H]1c1ncc(-c2ccc(-c3ccc(-c4cnc([C@@H]5Cc6ccccc6N5C(=O)[C@@H](NC(=O)OC)C(C)C)[nH]4)cc3)cc2)[nH]1)C(C)C [Example 266] | 0.001 to 0.999 nM | 0.009 nM | 1 to 44 nM | 1 to 4.99 nM | 0.001 to 0.99 nM |
| COC(=O)N[C@H](C(=O)N1c2ccccc2C[C@H]1c1ncc(-c2ccc(-c3ccc(-c4cnc([C@@H]5Cc6ccccc6N5C(=O)[C@@H](NC(=O)OC)C(C)C)[nH]4)cc3)cc2)[nH]1)C(C)C [Example 267] | 1 to 44 nM | 0.045 nM | > 44 nM | > 5 nM | 0.001 to 0.99 nM |
| COC(=O)N[C@H](C(=O)N1CCC[C@H]1c1nc2ccc3cc(C#Cc4ccc(-c5cnc([C@@H]6CCCN6C(=O)[C@H](NC(=O)OC)c6ccccc6)[nH]5)cc4)ccc3c2[nH]1)[C@@H](C)OC [Example 268] | 0.001 to 0.999 nM | 0.007 nM | 0.001 to 0.999 nM | 0.001 to 0.99 nM | 0.001 to 0.99 nM |
| COC(=O)N[C@@H](C(=O)N1CCC[C@H]1c1ncc(-c2ccc3cc(-c4ccc5c(c4)CCc4nc([C@@H]6CCCN6C(=O)[C@@H](NC(=O)OC(C)(C)C)C6CCOCC6)[nH]c4-5)ccc3c2)[nH]1)c1ccccc1 [Example 269] | > 44 nM | 0.076 nM | 1 to 44 nM | > 5 nM | 0.001 to 0.99 nM |
| COC(=O)N[C@H](C(=O)N1CCC[C@H]1c1nc2c([nH]1)-c1ccc(-c3ccc4cc(-c5cnc([C@@H]6CCCN6C(=O)[C@H](NC(=O)OC)c6ccccc6)[nH]5)ccc4c3)cc1CC2)C1CCN(C(=O)OC(C)(C)C)CC1 [Example 270] | 0.001 to 0.999 nM | 0.032 nM | 0.001 to 0.999 nM | 0.001 to 0.99 nM | 0.001 to 0.99 nM |
| COC(=O)N[C@H](C(=O)N1CCC[C@H]1c1nc2ccc3cc(-c4ccc5cc(-c6cnc([C@@H]7CCCN7C(=O)[C@H](NC(=O)OC)c7ccccc7)[nH]6)ccc5c4)ccc3c2[nH]1)[C@@H](C)OC [Example 271] | 0.001 to 0.999 nM | 0.008 nM | 0.001 to 0.999 nM | 0.001 to 0.99 nM | 0.001 to 0.99 nM |
